# Peptide text beside a SMILES is read from it.
# Key:
# NMU receptor 2 (NMUR 2) = biological target: T1, NMU receptor 2 (NMUR 2) (Homo sapiens, UniProt Q9GZQ4); assay: [Ca2+]i (aequorin) in NMUR 2-transfected S2 cells; type: cell-based; conditions: NMUR 2- and apoaequorin-co-transfected S2 cells; N = 3 (Fig. 3D); read-out: EC50, [Ca2+]i via NMUR 2
# T1 construct: expressed in transfected cells; host or cells: Drosophila S2 cells (pMT/V5-His TOPO)
# Experimental: (§1) The capa peptides Drm-capa-1 (GANMGLYAFPRVamide), Drm-capa-2 (ASGLVAFPRVamide), Drm-PK-1 (TGPSASSGLWFGPRLamide), Drm-PK-2 (SVPFKPRLamide) and hugin gamma (hugg, pQLQSNGEPAYRVRTPRL-amide) were synthesised as C-terminally amidated peptides (Biomatik Corporation, Canada). Peptides were dissolved in distilled ACN/H2O to a concentration of 1 mM and then diluted to the required working concentration in Schneider's medium (Invitrogen Inc.). Human neuromedin U-25 was purchased from Sigma. Rabbit polyclonal antibody to porcine neuromedinU-8 was purchased from Progen biotechnik (Heidelberg, Germany). Rabbit capa precursor peptide used was described in [21] Rabbit anti-peptide antibody was raised against the capaR epitope (CQQGTNNRETRNSQM) by Genosphere Biotechnologies (Paris, France) and purified on a HiTrap NHS-activated HP column (Amersham Pharmacia Bio-tech; Buckinghamshire, UK) according to the manufacturer's instructions. Immunohistochemistry was carried out as described previously. Mouse anti-GFP primary antibody (Zymed) and the antiserum to neuromedinU-8 were all diluted 1∶1000 or, in the case of the pre-immune serum, the affinity-purified capaR antibody and the antiserum to the capa precursor peptide, 1∶500. Incubations in the primary antibodies were performed overnight. A FITC-conjugated affinity-purified goat anti-mouse antibody (Jackson Immunologicals) was used in a dilution of 1∶1,000 for visualization of the mouse monoclonal anti-GFP. A Texas red-conjugated affinity-purified goat anti-rabbit antibody (Jackson Immunologicals) was used at a dilution of 1∶1,000 for visualization of the rabbit capaR antiserum.
# Drosophila S2 cells, cultured under standard conditions were transiently transfected with the apoaequorin ORF [21] and a receptor ORF construct, and expression induced using CuSO4. Transfected S2 cells were harvested and incubated with 2.5 µM coelenterazine in the dark at RT for 1–2 h as previously described. 25,000 cells were then placed in 135 µl Schneider's medium supplemented with 10% FCS in a well of a white polystyrene 96-well plate (Berthold Technologies). Bioluminescence recordings were carried out using a Mithras LB940 automated 96-well plate reader (Berthold Technologies) and MikroWin software. 15 µl of each of different peptides were applied to final concentrations as required. At the end of each recording samples were disrupted by the addition of 100 µl lysis solution, and the [Ca^2+] concentrations calculated as previously described. For assays in Ca^2+-free medium, transfected cells were collected and pelleted after incubation with coelenterazine. Cell pellets were re-suspended in Ca^2+-free Schneider's medium (Invitrogen Inc.) without FCS and collected by centrifugation. The washing and pelleting procedure was repeated once more. […]
# capaR (CG14575) = biological target: T2, capaR (CG14575) (Drosophila melanogaster, UniProt Q8ITC7); assay: [Ca2+]i (aequorin) in capaR-transfected S2 cells; type: cell-based; conditions: capaR S2 cells; N = 3 (Fig. 3D); read-out: EC50, [Ca2+]i via capaR
# T2 construct: The ORF of capaR was amplified from whole fly cDNA as template; expressed in transfected cells; host or cells: Drosophila S2 cells (pMT/V5-His TOPO, CuSO4 induction)
# T2 sequence (Q8ITC7 1-477): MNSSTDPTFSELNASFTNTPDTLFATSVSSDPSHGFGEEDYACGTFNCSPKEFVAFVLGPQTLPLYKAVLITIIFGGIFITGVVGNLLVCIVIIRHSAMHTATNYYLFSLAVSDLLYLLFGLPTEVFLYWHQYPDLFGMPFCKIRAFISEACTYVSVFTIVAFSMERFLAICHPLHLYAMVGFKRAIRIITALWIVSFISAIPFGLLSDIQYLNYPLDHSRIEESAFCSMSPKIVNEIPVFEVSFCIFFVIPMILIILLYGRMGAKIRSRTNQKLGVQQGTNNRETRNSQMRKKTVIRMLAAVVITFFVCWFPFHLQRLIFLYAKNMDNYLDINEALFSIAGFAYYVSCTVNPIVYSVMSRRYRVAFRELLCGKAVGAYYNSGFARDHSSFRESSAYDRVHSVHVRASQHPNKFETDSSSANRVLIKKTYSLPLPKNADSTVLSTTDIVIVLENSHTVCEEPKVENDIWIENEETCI
# Description: The ORF of capaR was amplified from whole fly cDNA as template using the primers 5′-[…]-3′ and 5′-[…]-3′ and cloned into pMT/V5-His TOPO vector (Invitrogen). The eYFP ORF was fused in-frame at the C-terminus of the capaR using KpnI and ApaI sites and the tagged construct was cloned into the pMT/V5-His TOPO vector.
# as §1
# Drosophila S2 cells, cultured under standard conditions were transiently transfected with the apoaequorin ORF [21] and a receptor ORF construct, and expression induced using CuSO4. Transfected S2 cells were harvested and incubated with 2.5 µM coelenterazine in the dark at RT for 1–2 h as previously described. 25,000 cells were then placed in 135 µl Schneider's medium supplemented with 10% FCS in a well of a white polystyrene 96-well plate (Berthold Technologies). Bioluminescence recordings were carried out using a Mithras LB940 automated 96-well plate reader (Berthold Technologies) and MikroWin software. 15 µl of each of different peptides were applied to final concentrations as required. At the end of each recording samples were disrupted by the addition of 100 µl lysis solution, and the [Ca^2+] concentrations calculated as previously described. For assays in Ca^2+-free medium, transfected cells were collected and pelleted after incubation with coelenterazine. Cell pellets were re-suspended in Ca^2+-free Schneider's medium (Invitrogen Inc.) without FCS and collected by centrifugation. The washing and pelleting procedure was repeated once more. Experiments were then carried out on 25,000 cells per sample as above. To verify whether the observed calcium signal was linked to phospholipase C (PLC) activation, S2-capaR cells were preincubated with the PLC inhibitor U73122 at concentration of 10^−3 M to 10^−8 M for 10 min. Luminometry experiments were carried out on live, intact tubules expressing a targeted transgene for cytosolic-targeted apoaequorin in either principal or stellate cells as previously described, [22]. For in vivo tubule experiments, flies of the following genotypes were used: c42aeq, capaR-GAL4, UAS-capaR, UAS-capaR RNAi, UAS-NMUR 2 and the resulting progeny from GAL4>UAS crosses.
# T1 sequence (Q9GZQ4 whole entry): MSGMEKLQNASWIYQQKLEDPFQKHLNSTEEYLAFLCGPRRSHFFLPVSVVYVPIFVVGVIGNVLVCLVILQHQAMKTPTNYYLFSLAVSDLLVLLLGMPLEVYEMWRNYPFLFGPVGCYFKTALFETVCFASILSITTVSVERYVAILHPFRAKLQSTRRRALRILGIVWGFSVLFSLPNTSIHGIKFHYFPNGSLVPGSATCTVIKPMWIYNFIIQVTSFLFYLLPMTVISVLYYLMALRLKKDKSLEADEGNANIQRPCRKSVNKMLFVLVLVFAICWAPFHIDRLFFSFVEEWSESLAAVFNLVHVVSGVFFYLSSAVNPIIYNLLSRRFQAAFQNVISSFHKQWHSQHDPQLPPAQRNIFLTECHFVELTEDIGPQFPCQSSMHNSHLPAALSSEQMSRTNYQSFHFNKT
compound,measurement,setting,value
"CC(C)C[C@H](NC(=O)[C@H](Cc1ccccc1)NC(=O)[C@H](Cc1ccc(O)cc1)NC(=O)CNC(=O)[C@H](CCCNC(=N)N)NC(=O)[C@H](CO)NC(=O)[C@H](CCC(N)=O)NC(=O)[C@H](CO)NC(=O)[C@H](C)NC(=O)[C@H](Cc1ccccc1)NC(=O)[C@@H]1CCCN1C(=O)[C@H](CO)NC(=O)[C@H](CCC(N)=O)NC(=O)[C@H](Cc1ccccc1)NC(=O)[C@H](CCC(=O)O)NC(=O)[C@H](CCC(=O)O)NC(=O)[C@H](CC(=O)O)NC(=O)[C@@H](NC(=O)[C@H](CCCNC(=N)N)NC(=O)[C@@H](N)Cc1ccccc1)C(C)C)C(=O)N[C@@H](Cc1ccccc1)C(=O)N[C@@H](CCCNC(=N)N)C(=O)N1CCC[C@H]1C(=O)N[C@@H](CCCNC(=N)N)C(=O)N[C@@H](CC(N)=O)C(N)=O [NMU-25, reference compound] (H-FRVDEEFQSPFASQSRGYFLFRPRN-NH2)",EC50,NMU receptor 2 (NMUR 2),0.91 nM
same,EC50,capaR (CG14575),21.8 nM
